From ChEMBL document CHEMBL1131863, “Synthesis and antibacterial activity of HMR 3647 a new ketolide highly potent against erythromycin-resistant and susceptible pathogens” (1999)
Values after ≈ are worked out from the molar mass of the structure shown. Active and inactive are the calls of the source. The calls are words filed in the database; no cut-off is given here.

Key:
Mus musculus [1] = experiment: The compound was tested in vivo for antibacterial activity against AmpR beta(+) Haemophilus influenza 351RD7 in mice after oral administration; assay type: functional
Staphylococcus aureus [2] = experiment: The compound was tested in vitro for antibacterial activity against erythromycin susceptible Staphylococcus aureus 011UC4.; assay type: functional
Mus musculus [3] = experiment: The compound was tested in vivo for antibacterial activity against erythromycin susceptible Streptococcus pneumoniae 032UC1 in mice after oral administration; assay type: functional
Mus musculus [4] = experiment: The compound was tested in vivo for antibacterial activity against AmpR beta(-) Haemophilus influenza 351TO19 in mice after oral administration; assay type: functional
Haemophilus influenzae [5] = experiment: The compound was tested in vitro for antibacterial activity against Haemophilus influenza 351HT3.; assay type: functional
Streptococcus pyogenes [6] = experiment: The compound was tested in vitro for antibacterial activity against erythromycin susceptible Streptococcus pyogenes 02A1UC1.; assay type: functional
Mus musculus [7] = experiment: The compound was tested in vivo for antibacterial activity against constitutively erythromycin resistant Streptococcus pneumoniae 030MV2 in mice after oral administration; assay type: functional
Mus musculus [8] = experiment: The compound was tested in vivo for antibacterial activity against constitutively erythromycin resistant Streptococcus pneumoniae 030SJ6 in mice after oral administration; assay type: functional
Mus musculus [9] = experiment: The compound was tested in vivo for antibacterial activity against Haemophilus influenza 351GR1 in mice after oral administration; assay type: functional
Streptococcus pneumoniae [10] = experiment: The compound was tested in vitro for antibacterial activity against erythromycin susceptible Streptococcus pneumoniae 032UC1.; assay type: functional
Mus musculus [11] = experiment: The compound was tested in vivo for antibacterial activity against constitutively erythromycin resistant Streptococcus pneumoniae 030SJ1 in mice after oral administration; assay type: functional
Streptococcus pneumoniae [12] = experiment: The compound was tested in vitro for antibacterial activity against constitutively erythromycin resistant Streptococcus pneumoniae 030CR18c.; assay type: functional
Mus musculus [13] = experiment: The compound was tested in vivo for antibacterial activity against constitutively erythromycin resistant Streptococcus pneumoniae 030Cr29 in mice after oral administration; assay type: functional
Streptococcus pneumoniae [14] = experiment: The compound was tested in vitro for antibacterial activity against constitutively erythromycin resistant Streptococcus pneumoniae 030PW23c.; assay type: functional
Escherichia coli [15] = experiment: The compound was tested in vitro for antibacterial activity against Escherichia coli 250 UCS.; assay type: functional
Staphylococcus aureus [16] = experiment: The compound was tested in vitro for antibacterial activity against inducibly erythromycin resistant Staphylococcus aureus 011GO25i.; assay type: functional
Mus musculus [17] = experiment: The compound was tested in vivo for antibacterial activity against inducibly erythromycin resistant Streptococcus pneumoniae 030RO1 in mice after oral administration; assay type: functional
Mus musculus [18] = experiment: The compound was tested in vivo for antibacterial activity against erythromycin susceptible Staphylococcus aureus 011UC4 in mice after oral administration; assay type: functional
Streptococcus pneumoniae [19] = experiment: The compound was tested in vitro for antibacterial activity against inducibly erythromycin resistant Streptococcus pneumoniae 030J5i.; assay type: functional
Mus musculus [20] = experiment: The compound was tested in vivo for antibacterial activity against erythromycin susceptible Streptococcus pyogenes 02A1UC1 in mice after oral administration; assay type: functional
Streptococcus pneumoniae [21] = experiment: The compound was tested in vitro for antibacterial activity against constitutively erythromycin resistant Streptococcus pneumoniae 030SJ1.; assay type: functional
Staphylococcus aureus [22] = experiment: The compound was tested in vitro for antibacterial activity against constitutively erythromycin resistant Staphylococcus aureus 011CB20.; assay type: functional
Streptococcus pneumoniae [23] = experiment: The compound was tested in vitro for antibacterial activity against constitutively erythromycin resistant Streptococcus pneumoniae 030PW23c; assay type: functional
Streptococcus pneumoniae [24] = experiment: The compound was tested in vitro for antibacterial activity against constitutively erythromycin resistant Streptococcus pneumoniae 030CR18c; assay type: functional
Staphylococcus aureus [25] = experiment: The compound was tested in vitro for antibacterial activity against constitutively erythromycin resistant Staphylococcus aureus 011CB20; assay type: functional
Haemophilus influenzae [26] = experiment: The compound was tested in vitro for antibacterial activity against Haemophilus influenza 351HT3; assay type: functional
Streptococcus pneumoniae [27] = experiment: The compound was tested in vitro for antibacterial activity against inducibly erythromycin resistant Streptococcus pneumoniae 030J5i; assay type: functional
Staphylococcus aureus [28] = experiment: The compound was tested in vitro for antibacterial activity against erythromycin susceptible Staphylococcus aureus 011UC4; assay type: functional
Staphylococcus aureus [29] = experiment: The compound was tested in vitro for antibacterial activity against inducibly erythromycin resistant Staphylococcus aureus 011GO25i; assay type: functional
Escherichia coli [30] = experiment: The compound was tested in vitro for antibacterial activity against Escherichia coli 250 UCS; assay type: functional
Streptococcus pneumoniae [31] = experiment: The compound was tested in vitro for antibacterial activity against erythromycin susceptible Streptococcus pneumoniae 032UC1; assay type: functional
Streptococcus pyogenes [32] = experiment: The compound was tested in vitro for antibacterial activity against erythromycin susceptible Streptococcus pyogenes 02A1UC1; assay type: functional
Streptococcus pneumoniae [33] = experiment: The compound was tested in vitro for antibacterial activity against constitutively erythromycin resistant Streptococcus pneumoniae 030SJ1; assay type: functional
Streptococcus pneumoniae [34] = experiment: The compound was tested in vitro for antibacterial activity against 53 strains of Streptococcus pneumoniae PenR Value is 0.3/40; assay type: functional, organism-based
Streptococcus pneumoniae [35] = experiment: The compound was tested in vitro for antibacterial activity against 32 strains of inducibly erythromycin resistant Streptococcus pneumoniae Value is 40/40; assay type: functional, organism-based
Streptococcus pneumoniae [36] = experiment: The compound was tested in vitro for antibacterial activity against 40 strains of constitutively erythromycin resistant Streptococcus pneumoniae Value is 40/40; assay type: functional, organism-based
Haemophilus influenzae [37] = experiment: The compound was tested in vitro for antibacterial activity against 39 strains of Haemophilus influenza AmpR; Value is 2.5/10; assay type: functional, organism-based
Mus musculus [38] = experiment: The compound was tested in vivo for antibacterial activity against inducibly erythromycin resistant Staphylococcus aureus 011GO3 in mice after oral administration; assay type: functional
Streptococcus sp. = experiment: The compound was tested in vitro for antibacterial activity against 31 strains of erythromycin resistant Streptococci; Value is 1.2/40; assay type: functional, organism-based
Staphylococcus sp. = experiment: The compound was tested in vitro for antibacterial activity against 66 strains of inducibly erythromycin resistant Staphylococci; Value is 40/40; assay type: functional, organism-based
Haemophilus influenzae [39] = experiment: The compound was tested in vitro for antibacterial activity against 47 strains of Haemophilus influenza AmpS; Value is 1.2/5; assay type: functional, organism-based

CC[C@H]1OC(=O)[C@H](C)C(=O)[C@H](C)[C@@H](O[C@@H]2O[C@H](C)C[C@H](N(C)C)[C@H]2O)[C@](C)(OC)C[C@@H](C)C(=O)[C@H](C)[C@H]2N(CCCCn3cnc(-c4cccnc4)c3)C(=O)O[C@]12C [TELITHROMYCIN]
ED50 (Mus musculus [1]): 57 mg/kg | MIC (Staphylococcus aureus [2]): 0.04 µg/mL (≈ 0.0493 µM) | ED50 (Mus musculus [3]): 1 mg/kg | ED50 (Mus musculus [4]): 40 mg/kg | MIC (Haemophilus influenzae [5]): 1.2 µg/mL (≈ 1.48 µM) | MIC (Streptococcus pyogenes [6]): 0.02 µg/mL (≈ 0.0246 µM) | ED50 (Mus musculus [7]): 4 mg/kg | ED50 (Mus musculus [8]): 6.5 mg/kg | ED50 (Mus musculus [9]): 68 mg/kg | MIC (Streptococcus pneumoniae [10]): 0.02 µg/mL (≈ 0.0246 µM) | ED50 (Mus musculus [11]): 15 mg/kg | MIC (Streptococcus pneumoniae [12]): 0.15 µg/mL (≈ 0.185 µM) | ED50 (Mus musculus [13]): 4.5 mg/kg | MIC (Streptococcus pneumoniae [14]): 0.08 µg/mL (≈ 0.0985 µM) | MIC (Escherichia coli [15]): 10 µg/mL (≈ 12.3 µM) | MIC (Staphylococcus aureus [16]): 0.08 µg/mL (≈ 0.0985 µM) | ED50 (Mus musculus [17]): 4 mg/kg | ED50 (Mus musculus [18]): 10 mg/kg | MIC (Streptococcus pneumoniae [19]): 0.02 µg/mL (≈ 0.0246 µM) | ED50 (Mus musculus [20]): 16 mg/kg | MIC (Streptococcus pneumoniae [21]): 0.08 µg/mL (≈ 0.0985 µM) | MIC (Staphylococcus aureus [22]): 40 µg/mL (≈ 49.3 µM)

CC[C@H]1OC(=O)[C@H](C)C(=O)[C@H](C)[C@@H](O[C@@H]2O[C@H](C)C[C@H](N(C)C)[C@H]2O)[C@](C)(OC)C[C@@H](C)C(=O)[C@H](C)[C@H]2N(CCCCn3cnc(-c4ccccc4)c3)C(=O)O[C@]12C
MIC (Staphylococcus aureus [2]): 0.08 µg/mL (≈ 0.0986 µM) | MIC (Haemophilus influenzae [5]): 2.5 µg/mL (≈ 3.08 µM) | MIC (Streptococcus pyogenes [6]): 0.02 µg/mL (≈ 0.0247 µM) | MIC (Streptococcus pneumoniae [10]): 0.02 µg/mL (≈ 0.0247 µM) | MIC (Streptococcus pneumoniae [12]): 1.2 µg/mL (≈ 1.48 µM) | MIC (Streptococcus pneumoniae [14]): 20 µg/mL (≈ 24.7 µM) | MIC (Escherichia coli [15]): 40 µg/mL (≈ 49.3 µM) | MIC (Staphylococcus aureus [16]): 0.3 µg/mL (≈ 0.37 µM) | MIC (Streptococcus pneumoniae [19]): 2.5 µg/mL (≈ 3.08 µM) | MIC (Streptococcus pneumoniae [21]): 2.5 µg/mL (≈ 3.08 µM) | MIC (Staphylococcus aureus [22]): 40 µg/mL (≈ 49.3 µM)

CC[C@H]1OC(=O)[C@H](C)C(=O)[C@H](C)[C@@H](O[C@@H]2O[C@H](C)C[C@H](N(C)C)[C@H]2O)[C@](C)(OC)C[C@@H](C)C(=O)[C@H](C)[C@H]2N(CCCCc3ccnc4ccccc34)C(=O)O[C@]12C
MIC (Streptococcus pneumoniae [23]): 1.2 µg/mL (≈ 1.51 µM) | MIC (Streptococcus pneumoniae [24]): 1.2 µg/mL (≈ 1.51 µM) | MIC (Staphylococcus aureus [25]): 40 µg/mL (≈ 50.3 µM) | MIC (Haemophilus influenzae [26]): 1.2 µg/mL (≈ 1.51 µM) | MIC (Streptococcus pneumoniae [27]): 0.02 µg/mL (≈ 0.0251 µM) | MIC (Staphylococcus aureus [28]): 0.04 µg/mL (≈ 0.0503 µM) | MIC (Staphylococcus aureus [29]): 0.08 µg/mL (≈ 0.101 µM) | MIC (Escherichia coli [30]): 40 µg/mL (≈ 50.3 µM) | MIC (Streptococcus pneumoniae [31]): 0.02 µg/mL (≈ 0.0251 µM) | MIC (Streptococcus pyogenes [32]): 0.02 µg/mL (≈ 0.0251 µM) | MIC (Streptococcus pneumoniae [33]): 1.2 µg/mL (≈ 1.51 µM)

CC[C@H]1OC(=O)[C@H](C)C(=O)[C@H](C)[C@@H](O[C@@H]2O[C@H](C)C[C@H](N(C)C)[C@H]2O)[C@](C)(OC)C[C@@H](C)C(=O)[C@H](C)[C@H]2N(CCCCn3nnnc3-c3ccccc3)C(=O)O[C@]12C
MIC (Staphylococcus aureus [2]): 0.02 µg/mL (≈ 0.0246 µM) | MIC (Haemophilus influenzae [5]): 1.2 µg/mL (≈ 1.48 µM) | MIC (Streptococcus pyogenes [6]): 0.02 µg/mL (≈ 0.0246 µM) | MIC (Streptococcus pneumoniae [10]): 0.02 µg/mL (≈ 0.0246 µM) | MIC (Streptococcus pneumoniae [12]): 1.2 µg/mL (≈ 1.48 µM) | MIC (Streptococcus pneumoniae [14]): 0.6 µg/mL (≈ 0.738 µM) | MIC (Escherichia coli [15]): 20 µg/mL (≈ 24.6 µM) | MIC (Staphylococcus aureus [16]): 0.6 µg/mL (≈ 0.738 µM) | MIC (Streptococcus pneumoniae [19]): 0.02 µg/mL (≈ 0.0246 µM) | MIC (Streptococcus pneumoniae [21]): 0.3 µg/mL (≈ 0.369 µM) | MIC (Staphylococcus aureus [22]): 40 µg/mL (≈ 49.2 µM)

CC[C@H]1OC(=O)[C@H](C)[C@@H](O[C@H]2C[C@@](C)(OC)[C@@H](O)[C@H](C)O2)[C@H](C)[C@@H](O[C@@H]2O[C@H](C)C[C@H](N(C)C)[C@H]2O)[C@](C)(OC)C[C@@H](C)C(=O)[C@H](C)[C@@H](O)[C@]1(C)O [CLARITHROMYCIN]
MIC (Streptococcus pneumoniae [23]): 40 µg/mL (≈ 53.5 µM) | MIC (Streptococcus pneumoniae [24]): 40 µg/mL (≈ 53.5 µM) | ED50 (Mus musculus [1]): 120 mg/kg | MIC (Staphylococcus aureus [25]): 40 µg/mL (≈ 53.5 µM) | ED50 (Mus musculus [3]): 7.5 mg/kg | ED50 (Mus musculus [4]): > 300 mg/kg | ED50 (Mus musculus [7]): > 50 mg/kg | MIC50/MIC90 (Streptococcus pneumoniae [34]): Active | ED50 (Mus musculus [8]): > 50 mg/kg | MIC50/MIC90 (Streptococcus pneumoniae [35]): Active | ED50 (Mus musculus [9]): 71 mg/kg | MIC50/MIC90 (Streptococcus pneumoniae [36]): Active | MIC (Haemophilus influenzae [26]): 5 µg/mL (≈ 6.68 µM) | MIC (Streptococcus pneumoniae [27]): 40 µg/mL (≈ 53.5 µM) | MIC (Staphylococcus aureus [28]): 0.3 µg/mL (≈ 0.401 µM) | MIC50/MIC90 (Haemophilus influenzae [37]): Active | ED50 (Mus musculus [38]): 55 mg/kg | MIC (Staphylococcus aureus [29]): 40 µg/mL (≈ 53.5 µM) | ED50 (Mus musculus [11]): > 50 mg/kg | ED50 (Mus musculus [13]): > 50 mg/kg | MIC (Escherichia coli [30]): 40 µg/mL (≈ 53.5 µM) | MIC50/MIC90 (Streptococcus sp.): Active | MIC (Streptococcus pneumoniae [31]): 0.04 µg/mL (≈ 0.0535 µM) | ED50 (Mus musculus [17]): > 50 mg/kg | MIC50/MIC90 (Staphylococcus sp.): Active | ED50 (Mus musculus [18]): 6 mg/kg | ED50 (Mus musculus [20]): 16 mg/kg | MIC (Streptococcus pyogenes [32]): 0.08 µg/mL (≈ 0.107 µM) | MIC (Streptococcus pneumoniae [33]): 40 µg/mL (≈ 53.5 µM) | MIC50/MIC90 (Haemophilus influenzae [39]): Active
